Several values for one entry are separate records, joined by “and”; a condition that tells them apart may be missing. Identical values can stand only once.
Legend:
mGluR4 [1] = molecular target: T1, mGluR4 (Homo sapiens, UniProt Q14833); assay: GloSensor cAMP biosensor assay, mGluR4 PAM and agonist activity; format: cell-based; design: expressed in transfected cells; details: in presence of EC20 concentration of agonist (1 μM L-SOP); read-out: EC50, mGluR4 PAM activity
Experimental: Cell Culture. HEK-293 cells were maintained with complete Dulbecco's modified Eagle's medium (DMEM), which was composed of 10% fetal bovine serum (FBS), 2 mM L-glutamine, 100 units/mL penicillin G, 100 μg/mL streptomycin at 37° C. in the presence of 5% CO2. HEK-293 stable cell lines with tetracycline inducible expression of mGluR1, mGluR2, mGluR4, mGluR6 or mGluR8 were maintained with complete DMEM with Hygromycin B (100 μg/mL), Blasticidin (15 μg/mL) at 37° C. in the presence of 5% CO2.
cAMP assay. The Gi/o coupled receptors (mGluR2, mGluR3, mGluR4, mGluR6 and mGluR8) were tested using cAMP assay. Promega's split luciferase based GloSensor cAMP biosensor technology was used in determining Gi-GPCR mediated cAMP production in live cells. On the cells stably expressing mGluR2, mGluR3, mGluR4, mGluR6 or mGluR8, GloSensor cAMP DNA construct was transfected overnight. Cells were seeded into PLL coated 384-well white clear bottom cell culture plates with complete BME Buffer with Tetracycline (1 μg/mL) at a density of 20,000 cells for another 24 h. The cell medium was removed and then 20 μL of buffer was loaded. […] Luminescence was counted in a Trilux luminescence counter. Data were analyzed with Prizm 5.0 (GraphPad software).
Secondary assays—Dose-response assays. […] For each compound, the results from four replicates were averaged and then either EC50 or IC50 values were calculated by non-linear regression using the 4-parameter logistic equation. […]
In sum, the mGluR4 PAM activity was determined using Promega's split luciferase based GloSensor cAMP biosensor assay (refs. 41-42). mGluR4 is coupling to Gαi protein to inhibit adenylate cyclase, which converts ATP to cAMP, which plays an important role in many signal transduction pathways. […] The mGluR4 PAM activity of 15 was evaluated in presence of EC20 concentration of agonist (1 μM L-SOP) by measuring changes in intracellular cAMP concentration.

plasma stability = format: in vitro ADME; details: rat plasma; for Plasma stability, remaining of the intact test compound: 37° C.
Experimental: Briefly, each tube is added 882 μL of 1:1 diluted rat plasma with phosphate buffer (pH 7.4). 18 μL (100 μM) of DMSO stock solution of the test compound (4, 13 and 15) or positive control compound (Diltiazem) was added to make a final compound concentration 2 μM in the plasma solution and final DMSO content 2%. The mixture was incubated at 37° C. After the incubation at 0, 15, 30, 60, and 120 min time points, aliquots of 50 μL samples were quenched with 100 μL of ice-cold acetonitrile with 25 μM of the internal reference (for HPLC analysis), respectively. The quenched samples were centrifuged at 10,000×g, and the supernatant was analyzed by HPLC. The percentage of remaining intact test compound was calculated by (peak area at the specific time point)/(peak area at 0 min)×100. Every sample was assayed three times.

mGluR4 [2] = molecular target: T1, mGluR4; assay: competitive binding (radioligand replacement) assay with [3H]4 in mGluR4 transfected CHO cells; design: expressed in transfected cells; host or cells: CHO cells; details: 2 nM [3H]4, read-out: IC50 (nM), affinity to mGluR4
Experimental: In Vitro mGluR4 Binding Assay. CHO cells expressing mGluR4 were used for all binding assay protocols. For competitive binding, 2 nM of [^3H]4 was used together with increased concentrations of test compounds ranging from 0.01 nM to 10 μM. Each test tube contained 50 000 freshly harvested CHO cells expressing mGluR4 cultured in HAMs cell culture medium with 100 nM of glutamate, penicillin-streptomycin (100 units), and 1 mM G418. [3H]4 (2 nM) was added to the cell extract with and without test compounds on ice and then incubated for 30 min at room temperature. Samples were centrifuged at 1200 rpm for 10 min at 4° C. and washed three times with a cold cell culture medium as a washing buffer. Samples were lysed by adding 100 μL of 0.5% NaOH and heated using a heating block (56° C., 30 min). Samples were cooled with an ice bath and transferred to Solvent-Saver scintillation vials (VWR International LLC.). To obtain binding parameters, the scintillation liquid (PerkinElmer, Optima Gold) was added prior to counting with a scintillation counter (Packard TriCarb Model, 1 min/vial). Nonspecific binding was determined using 10 μM of nonradioactive test compound, and specific binding was determined by extracting the nonspecific binding from total binding. All measurements were done in triplicate and analyzed with GraphPad Prism software (GraphPad Software Inc.).

solution stability = format: physicochemical
Experimental: Three pH values, 5, 7.4 and 9.4 were selected to check the solution stability. Aqueous solutions with different pH values were established using the following buffers: sodium acetate-KCl—HCl buffer (20 mM, pH 5.0), phosphate buffer (20 mM, pH 7.4), and boric acid-KCl—NaOH buffer (20 mM, pH 9.4). 891 μL of each pH buffer was placed in different tubes. 9 μL (1 mM) of the sample stock (4, 13, 15 and Diltiazem) was transferred to a particular buffer tube and mixed just before the time 0 min. The mixture was vortexed and incubated at 37° C. After the incubation at the different time points (0, 15, 30, 60, and 120 min), aliquots of 50 μL samples were quenched with 100 μL of ice-cold acetonitrile with 25 μM internal reference, respectively, and analyzed by HPLC. The percentage of the remaining intact compound was calculated by (peak area at the specific time point)/(peak area at 0 min)×100. Every sample was assayed three times.

microsomal stability = format: in vitro ADME, Sprague-Dawley rat; details: rat liver microsomes, NADPH
Experimental: First, Sprague-Dawley rat liver microsomes (0.5 mg/mL, Sigma-Aldrich, No. M9066) was incubated with PBS (50 mM, pH=7.4) in a reaction tube at 37° C. for 3 min. To the reaction tube were added the test compound (2 μM) and then cofactor, NADPH (1 mM), to start the reaction. The mixture was shaken in a water bath at 37° C. At different time points (0, 5, 10, 15, 30 min), aliquots (50 μL) were removed and added to 100 μl of cold acetonitrile with internal standard (25 μM) to quench the reaction. The precipitated material was by centrifugation (10,000×g, 10 min, 4° C.), and the supernatant was analyzed by RP-HPLC (Column: Phenomenex Luna© 5 μm, Cis, 100 Å, 250×4.6 mm). The RP-HPLC was carried out by using a 15-min gradient method: eluent A: 0.1% formic acid/H2O; eluent B: 0.1% formic acid/CH3CN; gradient: […]; 5% B to 95% B from 1 to 9 min, 95% B from 9 to 12 min, 95% to 5% B from 12 to 13 min, 5% B from 13 to 15 min; flow rate at 0.7 mL/min.
The in peak area ratio (test compound peak area at a time point/peak area at 0 min time point) was plotted against time and the gradient of the line was determined. Subsequently, the half-life (t1/2) was calculated as 0.693/k, where the elimination rate constant k equals to −gradient. V (μL/mg) was obtained as a ratio of volume of incubation […]/protein in the incubation (mg). Finally, the intrinsic clearance (CLint) (μL/min/mg protein) was calculated as V*0.693/t1/2.

mGluR4 [3] = molecular target: T2, mGluR4 (Rattus norvegicus, UniProt P31423); assay: PET blocking studies of [18F]15 binding; format: in vivo, Sprague Dawley rats
T2 construct: from tissue; host or cells: brain of living male Sprague Dawley rats
Experimental: PET Imaging of [^18F]15 in Rats. Altogether 24 normal male Sprague Dawley rats were used for the imaging studies comprising 15 baseline studies and 15 blocking studies. Rats were anaesthetized with isoflurane/nitrous oxide (1.0-1.5% isoflurane, with oxygen flow of 1-1.5 L/min), and catheter was installed into tail vein for the administration of [^18F]15. Dynamic volumetric PET data was acquired with a PET-CT scanner for 60 min (Triumph-II, Tri-Foil Imaging, Northridge, Calif.). The vital signals such as heart rate and respiration rate were monitored during scanning period. PET data acquisition was started immediately after administration of radioactivity with the dose range of 18-34 MBq depending on the size of the rat followed by CT imaging to obtain anatomical information and data for attenuation correction of PET data. PET data was processed by using maximum-likelihood expectation-maximization (MLEM) algorithm with 30 iterations to dynamic volumetric images, and corrected for uniformity, scatter, and attenuation. The CT data was processed by the modified Feldkamp algorithm using matrix volumes of 512×512×512 and pixel size of […]. Co-registration of CT and PET images and analysis of PET images were carried out using PMOD3.2 software (PMOD Technology, Zurich, Switzerland).
For blocking studies, the same scanning protocols were used as for the baseline studies. For mGluR4 blocking experiments, 1, 2 or 3 mg/kg of 13 or 15 dissolved in a saline solution with 10% DMSO, 5% Tween-20 and 85% PBS was injected 1 min before iv administration of [^18F]15.

T1 sequence (Q14833 33-912): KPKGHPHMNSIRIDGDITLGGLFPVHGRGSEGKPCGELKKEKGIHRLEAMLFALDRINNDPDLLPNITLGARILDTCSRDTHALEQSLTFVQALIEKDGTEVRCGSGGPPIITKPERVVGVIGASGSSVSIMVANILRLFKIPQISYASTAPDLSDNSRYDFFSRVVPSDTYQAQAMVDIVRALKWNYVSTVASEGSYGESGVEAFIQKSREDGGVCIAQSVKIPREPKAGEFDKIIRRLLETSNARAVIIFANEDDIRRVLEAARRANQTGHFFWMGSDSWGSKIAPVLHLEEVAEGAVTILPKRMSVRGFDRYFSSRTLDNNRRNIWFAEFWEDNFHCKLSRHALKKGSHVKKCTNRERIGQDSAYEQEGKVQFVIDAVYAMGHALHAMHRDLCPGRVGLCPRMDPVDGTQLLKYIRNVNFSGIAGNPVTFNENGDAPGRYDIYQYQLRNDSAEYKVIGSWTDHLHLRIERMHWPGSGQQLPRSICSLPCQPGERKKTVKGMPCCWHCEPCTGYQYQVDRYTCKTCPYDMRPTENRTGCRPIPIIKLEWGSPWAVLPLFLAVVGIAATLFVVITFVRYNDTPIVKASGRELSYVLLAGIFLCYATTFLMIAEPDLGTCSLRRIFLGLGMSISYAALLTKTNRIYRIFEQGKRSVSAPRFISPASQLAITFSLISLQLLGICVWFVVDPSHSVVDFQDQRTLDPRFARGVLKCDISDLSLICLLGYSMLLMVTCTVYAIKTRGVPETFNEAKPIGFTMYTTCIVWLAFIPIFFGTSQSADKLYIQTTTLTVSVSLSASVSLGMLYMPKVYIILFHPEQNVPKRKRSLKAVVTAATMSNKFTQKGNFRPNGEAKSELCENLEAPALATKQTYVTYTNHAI
T2 sequence (P31423 33-912): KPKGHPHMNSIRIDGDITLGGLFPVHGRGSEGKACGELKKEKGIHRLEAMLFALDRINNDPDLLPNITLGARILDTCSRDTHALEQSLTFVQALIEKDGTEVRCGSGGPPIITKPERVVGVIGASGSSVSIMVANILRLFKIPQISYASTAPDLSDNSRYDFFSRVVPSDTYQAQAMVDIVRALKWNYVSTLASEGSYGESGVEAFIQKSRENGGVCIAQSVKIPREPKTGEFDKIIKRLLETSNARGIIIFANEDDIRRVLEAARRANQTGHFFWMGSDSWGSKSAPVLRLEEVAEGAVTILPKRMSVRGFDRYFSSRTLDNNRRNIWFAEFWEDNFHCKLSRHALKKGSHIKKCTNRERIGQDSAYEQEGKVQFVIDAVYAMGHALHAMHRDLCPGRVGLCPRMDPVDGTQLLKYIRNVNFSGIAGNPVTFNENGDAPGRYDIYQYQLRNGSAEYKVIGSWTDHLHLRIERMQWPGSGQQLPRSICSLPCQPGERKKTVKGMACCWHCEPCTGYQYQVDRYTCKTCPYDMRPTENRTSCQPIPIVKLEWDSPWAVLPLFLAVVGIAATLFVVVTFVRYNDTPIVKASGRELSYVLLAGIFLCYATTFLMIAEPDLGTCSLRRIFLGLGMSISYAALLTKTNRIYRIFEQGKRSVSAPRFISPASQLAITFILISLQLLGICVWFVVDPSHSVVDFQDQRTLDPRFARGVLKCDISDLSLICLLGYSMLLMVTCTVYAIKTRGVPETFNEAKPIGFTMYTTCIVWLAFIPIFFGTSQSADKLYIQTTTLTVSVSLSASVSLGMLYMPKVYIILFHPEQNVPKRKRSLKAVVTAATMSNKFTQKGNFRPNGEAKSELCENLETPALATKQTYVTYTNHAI

Row | SMILES | EC50 (mGluR4 [1]) | Plasma stability, remaining of the intact test compound (plasma stability; 0 min) | Plasma stability, remaining of the intact test compound (plasma stability; 15 min) | Plasma stability, remaining of the intact test compound (plasma stability; 30 min) | Plasma stability, remaining of the intact test compound (plasma stability; 60 min) | Plasma stability, remaining of the intact test compound (plasma stability; 120 min) | The plasma stability, The intact ± SEM at 120 min (%) (plasma stability; 120 min) | IC50 (mGluR4 [2]) | The solution stability, The intact ± SEM at 120 min (%) (solution stability; pH = 5.0, 37° C.) | The solution stability, The intact ± SEM at 120 min (%) (solution stability; pH = 7.4, 37° C.) | The solution stability, The intact ± SEM at 120 min (%) (solution stability; pH = 9.4, 37° C.) | The microsome stability Clint (μL/min/mg protein) (microsomal stability) | The microsome stability t1/2 (microsomal stability) | blocking effect on [18F]15 binding (mGluR4 [3]; 1 mg/kg, pre-administration) | blocking of [18F]15 binding in the whole brain (mGluR4 [3]; blocking agent injected 1 min before [18F]15) | blocking of [18F]15 binding in striatum (mGluR4 [3]; dose 1 mg/kg) | blocking of [18F]15 binding in striatum (mGluR4 [3]; dose 2 mg/kg) | blocking of [18F]15 binding in striatum (mGluR4 [3]; dose 3 mg/kg)
1 | c1ccc(Nc2nc3c(s2)CCCc2[nH]ncc2-3)nc1 [Compound 11] | 55 nM | – | – | – | – | – | – | – | – | – | – | – | – | – | – | – | – | –
2 | COc1cc(NC(=O)c2ccccn2)ccc1Cl [Compound 4] | – | 100.00 ± 4.65% | 94.45 ± 1.65% | 97.56 ± 11.8% | 100.35 ± 8.04% | 98.21 ± 6.32% | 98.2 ± 6.3% | 5.1 nM | 92.7 ± 3.1% | 97.3 ± 1.1% | 89.1 ± 2.1% | 96.2 μL/min/mg protein | 14.41 min and 14.4 min | – | – | – | – | –
3 | CSc1cc(NC(=O)c2ccccn2)ccc1Cl [Compound 13] | – | 100.00 ± 0.21% | 95.34 ± 12.08% | 95.27 ± 7.76% | 93.62 ± 8.76% | 91.52 ± 2.49% | 91.5 ± 2.5% | 3.4 nM | 85.9 ± 0.8% | 87.9 ± 3.4% | 89.3 ± 1.3% | 54.8 μL/min/mg protein | 25.30 min | 25-30% | 22-25% | 18% | 20% | 28%
4 | COc1ccc([C@@H]2Sc3ccccc3N(CCN(C)C)C(=O)[C@@H]2OC(C)=O)cc1 [Diltiazem] | – | 100.00 ± 8.98% | 87.33 ± 9.53% | 75.23 ± 4.03% | 58.91 ± 13.39% | 48.97 ± 10.63% | 49.0 ± 10.6% | – | 94.7 ± 1.4% | 99.0 ± 5.7% | 69.8 ± 2.6% | – | – | – | – | – | – | –

— patent publication US20220118117A1, “MODULATORS OF METABOTROPIC GLUTAMATE RECEPTOR 4” (The General Hospital Corporation, priority 2019, published 2022)
